Values after ≈ are worked out from the molar mass of the structure shown. Where two headings read alike, the source gives them in different places.
Tests used:
[1] = tested on: lymphocytic leukemia P388; experiment: Lymphocytic Leukemia P388 Test; type: in vivo; conditions: DBA/2 mice, efficacy criterion ≥125%
Description: The animals used were DBA/2 mice, all of one sex, weighing a minimum of 17 g and all within a 3 g weight range. There were three animals per test group. The tumor transplant was by intraperitoneal injection of 0.1 ml of dilute ascitic fluid containing 10^6 cells of lymphocytic leukemia P388. LL-D05139β was administered intraperitoneally on days 1, 5 and 9 (relative to tumor inoculation) at various doses. The animals were weighed and survivors recorded on a regular basis for 30 days. The ratio of survival time for treated (T)/control (C) animals was calculated. The positive control compound was 5-fluorouracil, given as a 60 mg/kg injection. The criterion for efficacy is T/C×100≥125%.

Proteus rettgeri = experiment: In vitro antibacterial activity, agar dilution; type: cell-based; conditions: Providencia rettgeri; Proteus rettgeri N-76-1; Mueller-Hinton agar, 18 hours, 35° C.; read-out: Minimal Inhibitory Concentration
Description: (§1) This antibacterial agent is active in vitro against gram-positive and gram-negative bacteria when tested by the standard agar dilution procedure with Mueller-Hinton agar, and an inoculum of each test organism of approximately 10^4 colony-forming units delivered by a Steers replicating device. The minimal inhibitory concentration (mcg/ml) was defined as the lowest concentration of antibiotic LL-D05139β that inhibited visible growth after 18 hours incubation at 35° C.

Salmonella sp. = experiment: In vitro antibacterial activity, agar dilution; type: cell-based; conditions: Salmonella sp. QHC-77-3; Mueller-Hinton agar, 18 hours, 35° C.; read-out: Minimal Inhibitory Concentration
Description: as §1

Proteus morganii = experiment: In vitro antibacterial activity, agar dilution; type: cell-based; conditions: Morganella morganii; Proteus morganii K-79-25; Mueller-Hinton agar, 18 hours, 35° C.; read-out: Minimal Inhibitory Concentration
Description: as §1

Serratia sp. = experiment: In vitro antibacterial activity, agar dilution; type: cell-based; conditions: Serratia sp. TU1-78-15; Mueller-Hinton agar, 18 hours, 35° C.; read-out: Minimal Inhibitory Concentration
Description: as §1

Enterobacter aerogenes = experiment: In vitro antibacterial activity, agar dilution; type: cell-based; conditions: Klebsiella aerogenes; Enterobacter aerogenes Stfd-79-14; Mueller-Hinton agar, 18 hours, 35° C.; read-out: Minimal Inhibitory Concentration
Description: as §1

Staphylococcus aureus = experiment: In vitro antibacterial activity, agar dilution; type: cell-based; conditions: Mueller-Hinton agar, 18 hours, 35° C.; for MIC: read-out: Minimal Inhibitory Concentration
Description: as §1

Klebsiella pneumoniae = experiment: In vitro antibacterial activity, agar dilution; type: cell-based; conditions: 18 h, 35° C., read-out: Minimal Inhibitory Concentration
Description: as §1

Pseudomonas aeruginosa = experiment: In vitro antibacterial activity, agar dilution; type: cell-based; conditions: 35° C., read-out: Minimal Inhibitory Concentration
Description: as §1

Enterobacter cloacae = experiment: In vitro antibacterial activity, agar dilution; type: cell-based; conditions: Enterobacter cloacae K-79-16; Mueller-Hinton agar, 18 hours, 35° C.; read-out: Minimal Inhibitory Concentration
Description: as §1

Escherichia coli = experiment: In vitro antibacterial activity, agar dilution; type: cell-based; conditions: 35° C., read-out: Minimal Inhibitory Concentration
Description: as §1

Providencia stuarti = experiment: In vitro antibacterial activity, agar dilution; type: cell-based; conditions: Mueller-Hinton agar, 18 hours, 35° C.
Description: as §1

Enterococcus sp. = experiment: In vitro antibacterial activity, agar dilution; type: cell-based; conditions: Mueller-Hinton agar, 18 hours, 35° C.
Description: as §1

Micrococcus luteus = experiment: In vitro antibacterial activity, agar dilution; type: cell-based; conditions: Micrococcus luteus PCI-1001; Mueller-Hinton agar, 18 hours, 35° C.; read-out: Minimal Inhibitory Concentration
Description: as §1

[2] = tested on: Acinetobacter calcoaceticus; experiment: In vitro antibacterial activity, agar dilution; type: cell-based; conditions: 18 h, 35° C., read-out: Minimal Inhibitory Concentration
Description: as §1

Serratia marcescens = experiment: In vitro antibacterial activity, agar dilution; type: cell-based; conditions: Serratia marcescens QHC-77-2; Mueller-Hinton agar, 18 hours, 35° C.; read-out: Minimal Inhibitory Concentration
Description: as §1

Bacillus subtilis = experiment: In vitro antibacterial activity, agar dilution; type: cell-based; conditions: ATCC6633; Bacillus subtilis ATCC 6633; Mueller-Hinton agar, 18 hours, 35° C.; read-out: Minimal Inhibitory Concentration
Description: as §1

Candida albicans = experiment: In vitro antibacterial activity, agar dilution; type: cell-based; conditions: 18 h, 35° C., read-out: Minimal Inhibitory Concentration
Description: as §1

Pasteurella multocida = experiment: In vitro antibacterial activity, agar dilution; type: cell-based; conditions: Pasteurella multocida LL #117; Mueller-Hinton agar, 18 hours, 35° C.; read-out: Minimal Inhibitory Concentration
Description: as §1

[3] = tested on: human lung carcinoma (LX-1); experiment: Human tumor clonogenic assay, lung carcinoma; type: cell-based; conditions: for T/C / Av. No. of Colonies/Culture: Lung Carcinoma; for T/C: active if T/C ≤30%; for Av. No. of Colonies/Culture: colonies counted after 10-11 days, control 590
Description: (§2) This test was performed essentially by the method of A. Hamburger and S. Salmon, Primary bioassay of humor tumor stem cells., Science, 197: 461-463 (1977). Human colon carcinoma (CX-1) and human lung carcinoma (LX-1) tumors were obtained from the National Cancer Institute and propagated in athymic Balb/c mice. Freshly removed tumors were dispersed with trypsin 0.25% and 5×10^4 lung carcinoma cells or 1×10^5 colon carcinoma cells in soft (0.3%) agarose medium containing 0.1 ml of test drug were plated onto a solidified (0.5%) agarose base medium in 35 mm grided dishes. Cultures were incubated at 37° C. in a humidified 5% carbon dioxide in air atmosphere. Colonies were counted after 10-11 days. A compound is considered active if the treated/control (T/C) value is ≤30%, representing a 70% cell kill.

[4] = tested on: human colon carcinoma (CX-1); experiment: Human tumor clonogenic assay, colon carcinoma; type: cell-based
Description: as §2

[5] = Stability in solution as a function of pH; type: physicochemical

Q: Which results are given for C[C@H](N)C(=O)N[C@@H](COC(=O)C=[N+]=[N-])C(=O)O [LL-D05139β, N-L-alanyl-L-serine diazoacetate]?
A: T/C × 100 (survival time treated/control) ([1]; 25 mg/kg intraperitoneally on days 1, 5 and 9): 140%; T/C × 100 (survival time treated/control) ([1]; 50 mg/kg intraperitoneally on days 1, 5 and 9): 150%; T/C × 100 (survival time treated/control) ([1]; 200 mg/kg intraperitoneally on days 1, 5 and 9): 140%; MIC (Proteus rettgeri): 16 mg/L (≈ 65.5 µM); MIC (Salmonella sp.): 4 mg/L (≈ 16.4 µM); MIC (Proteus morganii): 64 mg/L (≈ 262 µM); MIC (Serratia sp.): 64 mg/L (≈ 262 µM); MIC (Enterobacter aerogenes): 128 mg/L (≈ 524 µM); MIC (Staphylococcus aureus; ATCC25923, Staphylococcus aureus ATCC 25923): 16 mg/L (≈ 65.5 µM); Minimal Inhibitory Concentration (Staphylococcus aureus; Staphylococcus aureus FU-79-2): 16 µg/mL; MIC (Staphylococcus aureus; Staphylococcus aureus SSC-79-18): 16 mg/L (≈ 65.5 µM); MIC (Klebsiella pneumoniae; Klebsiella pneumoniae AD, Mueller-Hinton agar): 4 mg/L (≈ 16.4 µM); MIC (Klebsiella pneumoniae; Klebsiella pneumoniae SSC-78-1, Mueller-Hinton agar): 128 mg/L (≈ 524 µM); MIC (Klebsiella pneumoniae; Klebsiella pneumoniae Stfd-79-6, Mueller-Hinton agar): 128 mg/L (≈ 524 µM); MIC (Pseudomonas aeruginosa; 18 h, Pseudomonas aeruginosa 12-4-4, Mueller-Hinton agar): 128 mg/L (≈ 524 µM); MIC (Pseudomonas aeruginosa; 18 h, Pseudomonas aeruginosa SSC-78-13, Mueller-Hinton agar): 512 mg/L (≈ 2100 µM); MIC (Pseudomonas aeruginosa; ATCC27853, 18 h, Pseudomonas aeruginosa ATCC 27853, Mueller-Hinton agar): 128 mg/L (≈ 524 µM); MIC (Enterobacter cloacae): 128 mg/L (≈ 524 µM); MIC (Escherichia coli; 18 h, Escherichia coli #31, Mueller-Hinton agar): 4 mg/L (≈ 16.4 µM); MIC (Escherichia coli; 18 h, Escherichia coli Stfd-79-20, Mueller-Hinton agar): 8 mg/L (≈ 32.8 µM); MIC (Escherichia coli; ATCC25922, 18 h, Escherichia coli ATCC 25922, Mueller-Hinton agar): 8 mg/L (≈ 32.8 µM); Minimal Inhibitory Concentration (Providencia stuarti; Providencia stuarti K-81-29): 64 µg/mL; MIC (Providencia stuarti; Providencia stuarti SSC-80-78, read-out: Minimal Inhibitory Concentration): 64 mg/L (≈ 262 µM); MIC (Enterococcus sp.; Enterococcus sp. OSU-75-1, read-out: Minimal Inhibitory Concentration): 64 mg/L (≈ 262 µM); Minimal Inhibitory Concentration (Enterococcus sp.; Enterococcus sp. SM-77-15): 64 µg/mL; MIC (Micrococcus luteus): 4 mg/L (≈ 16.4 µM); MIC ([2]; Acinetobacter calcoaceticus K-77-1, Mueller-Hinton agar): 128 mg/L (≈ 524 µM); MIC ([2]; Acinetobacter calcoaceticus Stfd-79-17, Mueller-Hinton agar): 512 mg/L (≈ 2100 µM); MIC (Serratia marcescens): 32 mg/L (≈ 131 µM); MIC (Bacillus subtilis): 16 mg/L (≈ 65.5 µM); MIC (Candida albicans; Candida albicans LL #32, Mueller-Hinton agar): 64 mg/L (≈ 262 µM); MIC (Candida albicans; Candida albicans LL #54, Mueller-Hinton agar): 128 mg/L (≈ 524 µM); MIC (Pasteurella multocida): 64 mg/L (≈ 262 µM); T/C ([3]; concentration 2 mgc/ml): 23.2%; Av. No. of Colonies/Culture ([3]; concentration 2 mgc/ml): 137; T/C ([3]; concentration 20 mgc/ml): 17.8%; Av. No. of Colonies/Culture ([3]; concentration 20 mgc/ml): 105; T/C ([3]; concentration 200 mgc/ml): 13.0%; Av. No. of Colonies/Culture ([3]; concentration 200 mgc/ml): 78; activity in human tumor clonogenic (stem cell) assay ([3]; human lung (LX-1) carcinoma, at 2.0 mcg/ml and higher doses): active; T/C ([4]; Colon Carcinoma, concentration 2 mgc/ml, active if T/C ≤30%): 16.0%; Av. No. of Colonies/Culture ([4]; Colon Carcinoma, concentration 2 mgc/ml, colonies counted after 10-11 days, control 420): 67; activity in human tumor clonogenic (stem cell) assay ([4]; colon (CX-1) carcinoma, at 2.0 mcg/ml and higher doses): active; stability in acid ([5]; acid, solutions kept between pH 7 and pH 9.5 during isolation): poor stability; stability ([5]; below pH 5.0): Decomposes rapidly; stability ([5]; weakly basic solutions): stable

Reference: patent US4503044A, “Antibiotic LL-D05139 β” (American Cyanamid Company, priority 1983, dated 1985)
